Consider twelve compounds from patent US20240217947A1, “Morpholinylquinazoline Compound, Pharmaceutical compositions thereof and Use Thereof” (SHANGHAI YINGLI PHARMACEUTICAL CO., LTD, priority 2022, published 2024).

A word on the IC50: it is the point on the concentration scale where inhibition reaches its midpoint.

The target of one series is HDAC1 (Homo sapiens, UniProt Q13547). The series can be described thus: HDAC1 enzyme activity inhibition IC50 evaluation experiment. It counts as biochemical. As to conditions: HDAC1 10 nM, acetylated peptide 8 μM, trypsin, fluorescence. The method, then:
(§1) Effect Example 2 HDAC1, HDAC2, HDAC3, HDAC6 enzyme activity inhibition IC50 evaluation experiment
(§2) Buffer solution (50 mM Tris 7.5, 0.01% Tween-20, 50 mM NaCl) was prepared according to the kit instructions, and the enzyme solution and substrate solution (acetylated peptide with the addition of trypsin) were prepared using the buffer solution. The test compound samples were dissolved with DMSO and added to the screening system at a certain starting concentration such as 10 μM, 3-fold dilution, while setting up a DMSO control and no-enzyme control. The enzyme reaction system includes: buffer, enzyme [final concentration: HDAC1=10 nM, HDAC2=4 nM, HDAC3=7 nM, HDAC6=5 nM], substrate (acetylated peptide) [final concentration: Peptide(HDAC1)=8 μM, Peptide(HDAC2)=10 μM, Peptide(HDAC3)=5 μM, Peptide(HDAC6)=11 μM], trypsin [final concentration: Trypsin(HDAC1,2,3)=0.05 μM, Trypsin(HDAC6)=0.1 μM], etc. The enzymes and compounds were reacted at room temperature for 15 min. After adding the substrate and Trypsin, centrifugation was performed for 1 min, and the fluorescence signal data (excitation wavelength 355 nM/emission wavelength 460 nm) was read continuously for 60 min using Envision, and the linear reaction segment was selected to obtain the slope and thus calculate the inhibition rate at that concentration. The IC50 value was obtained by fitting the curve using the formula Y=Bottom+(Top-Bottom)/(1+(IC50/X)^HillSlope).

A further series addresses T1, HDAC6 (Homo sapiens, UniProt Q9UBN7).
T1 sequence (Q9UBN7 1-1215): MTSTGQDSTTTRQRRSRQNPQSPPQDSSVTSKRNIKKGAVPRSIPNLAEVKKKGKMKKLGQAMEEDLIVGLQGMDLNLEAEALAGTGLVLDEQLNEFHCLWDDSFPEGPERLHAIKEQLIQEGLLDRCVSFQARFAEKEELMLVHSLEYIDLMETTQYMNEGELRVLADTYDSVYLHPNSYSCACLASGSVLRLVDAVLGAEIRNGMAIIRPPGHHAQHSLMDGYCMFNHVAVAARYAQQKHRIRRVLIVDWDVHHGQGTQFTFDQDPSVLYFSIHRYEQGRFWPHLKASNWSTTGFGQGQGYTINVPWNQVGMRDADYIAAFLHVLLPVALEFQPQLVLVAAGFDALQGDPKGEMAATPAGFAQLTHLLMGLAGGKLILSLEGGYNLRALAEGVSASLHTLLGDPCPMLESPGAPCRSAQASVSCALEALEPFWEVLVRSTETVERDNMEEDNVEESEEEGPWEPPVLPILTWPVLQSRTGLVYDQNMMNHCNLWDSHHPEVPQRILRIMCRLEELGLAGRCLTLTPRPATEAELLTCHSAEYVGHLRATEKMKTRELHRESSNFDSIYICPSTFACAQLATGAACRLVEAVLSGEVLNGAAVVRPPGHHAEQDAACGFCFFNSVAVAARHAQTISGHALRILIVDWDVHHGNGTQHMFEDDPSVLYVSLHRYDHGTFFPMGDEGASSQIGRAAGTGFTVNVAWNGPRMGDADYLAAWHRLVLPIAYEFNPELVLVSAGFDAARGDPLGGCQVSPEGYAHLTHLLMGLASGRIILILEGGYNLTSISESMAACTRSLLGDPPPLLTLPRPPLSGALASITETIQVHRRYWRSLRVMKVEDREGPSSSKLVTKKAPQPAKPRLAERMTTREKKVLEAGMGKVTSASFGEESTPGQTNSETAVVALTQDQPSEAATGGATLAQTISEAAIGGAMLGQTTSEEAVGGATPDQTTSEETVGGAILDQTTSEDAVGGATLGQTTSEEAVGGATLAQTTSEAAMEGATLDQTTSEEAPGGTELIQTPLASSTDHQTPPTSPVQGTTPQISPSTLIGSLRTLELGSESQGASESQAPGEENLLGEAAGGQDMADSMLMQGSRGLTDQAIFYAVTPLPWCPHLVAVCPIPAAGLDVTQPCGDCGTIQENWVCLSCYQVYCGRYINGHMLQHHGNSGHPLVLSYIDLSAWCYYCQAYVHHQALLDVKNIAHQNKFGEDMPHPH
In words: HDAC6 enzyme activity inhibition IC50 evaluation experiment. It counts as biochemical. As to conditions: HDAC6 5 nM, acetylated peptide 11 μM, trypsin, fluorescence. As for the experimental part:
as §1, §2

The next series has as its target PI3Kδ (Homo sapiens, UniProt O00329). The series can be described thus: PI3Kδ enzyme activity inhibition IC50 evaluation assay (ADP-Glo Kinase Assay). As to conditions: ATP 25 μM, PIP2 50 μg/mL, 1 hour room temperature, read-out: PI3K-δ IC50. It counts as biochemical. The method, then: (§3) Effec Example 1 IC50 evaluation assay for PI3Kα, PI3Kδ, PI3Kβ and PI3Kγ enzyme activity inhibition
(§4) The experiment was performed using the ADP-Glo Kinase Assay kit, following the instructions. The following buffer solutions were prepared: 50 mM HEPES, pH 7.5, 3 mM MgCl2, 1 mM EGTA, 100 mM NaCl, 0.03% CHAPS, 2 mM DTT. The test compound samples were dissolved in DMSO and added to the screening system at a certain starting concentration such as 10 μM, 3-fold dilution, while setting up both DMSO control and no kinase control. The optimal concentrations of PI3Kα, PI3Kδ, PI3Kβ and PI3Kγ enzymes, substrate (PIP2) and ATP were prepared in buffer. The enzyme reaction system included: buffer, ATP 25 μM, kinase substrate (PIP2, 50 μg/mL), kinases [PI3Kα (0.15 μg/mL), PI3Kδ (1.2 μg/mL), PI3Kβ (0.3 μg/mL) and PI3Kγ (2.5 μg/mL)], etc. The reaction system was reacted at room temperature for 1 hour. The reaction was terminated by adding a termination reagent (ADP-Glo reagent, 5 μL), and the ADP content in the system was detected using a detection reagent (Kinase Detection Reagent, 10 μL). Signal data were collected using the Envision instrument. Calculate the percentage of (%) inhibition according to the following formula: % inhibition=(DMSO control signal value−sample signal value)/(DMSO control signal value−no-kinase control signal value). The IC50 value was obtained by fitting the curve using the formula Y=Bottom+(Top-Bottom)/(1+(IC50/X)^HillSlope).

In another series the target is HDAC2 (Homo sapiens, UniProt Q92769). The series can be described thus: HDAC2 enzyme activity inhibition IC50 evaluation experiment. It counts as biochemical. Conditions: HDAC2 4 nM, acetylated peptide 10 μM, trypsin, fluorescence. The method, then:
as §1, §2

Another series addresses PI3Kβ (Homo sapiens, UniProt P42338). The series can be described thus: PI3Kβ enzyme activity inhibition IC50 evaluation assay (ADP-Glo Kinase Assay). It counts as biochemical. As to conditions: ATP 25 μM, PIP2 50 μg/mL, 1 hour room temperature, read-out: PI3K-β IC50. The method, then: as §3, §4
For orientation: ADP-Glo first removes unused ATP, then detects ADP through luciferase.

In another series the target is PI3Kα (Homo sapiens, UniProt P42336). The series can be described thus: PI3Kα enzyme activity inhibition IC50 evaluation assay (ADP-Glo Kinase Assay). It counts as biochemical. As to conditions: ATP 25 μM, PIP2 50 μg/mL, 1 hour room temperature, read-out: PI3K-α IC50. As for the experimental part: as §3, §4
A further series has as its target PI3Kγ (Homo sapiens, UniProt P48736). In words: PI3Kγ enzyme activity inhibition IC50 evaluation assay (ADP-Glo Kinase Assay). Conditions: ATP 25 μM, PIP2 50 μg/mL, 1 hour room temperature, read-out: PI3K-γ IC50. It counts as biochemical. As for the experimental part:
as §3, §4

The subject of series [1] is relapsed and/or refractory B-cell malignant hematologic neoplasms. Conditions: patients with relapsed and/or refractory B-cell malignant hematologic neoplasms, orally 80 mg once daily for 4 weeks; cited from earlier work.

Chain of PI3Kδ (O00329 whole entry, species assumed): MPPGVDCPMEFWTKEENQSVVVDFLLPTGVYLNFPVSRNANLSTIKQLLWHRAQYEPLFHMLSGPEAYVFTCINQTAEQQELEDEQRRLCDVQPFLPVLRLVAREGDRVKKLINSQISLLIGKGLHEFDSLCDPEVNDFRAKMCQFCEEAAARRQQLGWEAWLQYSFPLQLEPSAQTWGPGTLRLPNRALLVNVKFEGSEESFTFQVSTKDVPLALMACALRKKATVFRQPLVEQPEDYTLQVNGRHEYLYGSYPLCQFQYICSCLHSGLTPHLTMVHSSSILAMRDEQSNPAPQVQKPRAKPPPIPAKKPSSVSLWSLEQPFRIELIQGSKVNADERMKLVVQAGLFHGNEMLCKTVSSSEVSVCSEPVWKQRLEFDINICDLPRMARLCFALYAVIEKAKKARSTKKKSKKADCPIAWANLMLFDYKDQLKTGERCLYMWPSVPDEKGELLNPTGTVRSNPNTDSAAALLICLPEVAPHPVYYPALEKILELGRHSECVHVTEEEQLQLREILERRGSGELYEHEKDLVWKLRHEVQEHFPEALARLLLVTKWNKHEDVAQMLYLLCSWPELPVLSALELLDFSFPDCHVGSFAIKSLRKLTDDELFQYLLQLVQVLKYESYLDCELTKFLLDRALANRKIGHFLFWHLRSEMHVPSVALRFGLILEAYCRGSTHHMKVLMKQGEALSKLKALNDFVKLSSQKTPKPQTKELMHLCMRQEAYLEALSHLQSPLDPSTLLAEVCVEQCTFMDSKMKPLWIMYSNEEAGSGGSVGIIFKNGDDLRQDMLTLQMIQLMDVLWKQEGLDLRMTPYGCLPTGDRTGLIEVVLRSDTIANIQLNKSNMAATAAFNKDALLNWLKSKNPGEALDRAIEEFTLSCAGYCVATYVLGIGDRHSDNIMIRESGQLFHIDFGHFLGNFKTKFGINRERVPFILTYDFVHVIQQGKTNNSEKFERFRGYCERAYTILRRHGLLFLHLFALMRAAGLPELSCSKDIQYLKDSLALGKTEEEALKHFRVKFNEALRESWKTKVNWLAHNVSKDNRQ
Chain of PI3Kδ (P27986 whole entry partner, species assumed): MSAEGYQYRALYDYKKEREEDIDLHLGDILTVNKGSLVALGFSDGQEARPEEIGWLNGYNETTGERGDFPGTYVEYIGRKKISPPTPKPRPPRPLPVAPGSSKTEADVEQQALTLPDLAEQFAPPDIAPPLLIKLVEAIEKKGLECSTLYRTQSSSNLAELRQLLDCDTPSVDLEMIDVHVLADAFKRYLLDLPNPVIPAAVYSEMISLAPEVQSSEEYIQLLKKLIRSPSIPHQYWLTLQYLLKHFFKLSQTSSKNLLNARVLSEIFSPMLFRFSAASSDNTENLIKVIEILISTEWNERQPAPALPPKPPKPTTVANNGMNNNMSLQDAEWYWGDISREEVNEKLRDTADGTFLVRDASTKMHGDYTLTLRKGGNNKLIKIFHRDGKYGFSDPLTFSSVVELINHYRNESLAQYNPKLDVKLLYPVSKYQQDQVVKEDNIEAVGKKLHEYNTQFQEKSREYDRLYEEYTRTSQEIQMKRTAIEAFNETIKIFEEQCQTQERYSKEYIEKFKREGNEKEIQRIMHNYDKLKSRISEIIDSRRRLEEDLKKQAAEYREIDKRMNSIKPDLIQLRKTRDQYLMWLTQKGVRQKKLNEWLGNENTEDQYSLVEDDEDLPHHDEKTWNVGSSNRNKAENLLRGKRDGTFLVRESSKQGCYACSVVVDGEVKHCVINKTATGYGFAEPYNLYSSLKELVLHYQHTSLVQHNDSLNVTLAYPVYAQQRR
Chain of PI3Kα (P42336 whole entry, species assumed): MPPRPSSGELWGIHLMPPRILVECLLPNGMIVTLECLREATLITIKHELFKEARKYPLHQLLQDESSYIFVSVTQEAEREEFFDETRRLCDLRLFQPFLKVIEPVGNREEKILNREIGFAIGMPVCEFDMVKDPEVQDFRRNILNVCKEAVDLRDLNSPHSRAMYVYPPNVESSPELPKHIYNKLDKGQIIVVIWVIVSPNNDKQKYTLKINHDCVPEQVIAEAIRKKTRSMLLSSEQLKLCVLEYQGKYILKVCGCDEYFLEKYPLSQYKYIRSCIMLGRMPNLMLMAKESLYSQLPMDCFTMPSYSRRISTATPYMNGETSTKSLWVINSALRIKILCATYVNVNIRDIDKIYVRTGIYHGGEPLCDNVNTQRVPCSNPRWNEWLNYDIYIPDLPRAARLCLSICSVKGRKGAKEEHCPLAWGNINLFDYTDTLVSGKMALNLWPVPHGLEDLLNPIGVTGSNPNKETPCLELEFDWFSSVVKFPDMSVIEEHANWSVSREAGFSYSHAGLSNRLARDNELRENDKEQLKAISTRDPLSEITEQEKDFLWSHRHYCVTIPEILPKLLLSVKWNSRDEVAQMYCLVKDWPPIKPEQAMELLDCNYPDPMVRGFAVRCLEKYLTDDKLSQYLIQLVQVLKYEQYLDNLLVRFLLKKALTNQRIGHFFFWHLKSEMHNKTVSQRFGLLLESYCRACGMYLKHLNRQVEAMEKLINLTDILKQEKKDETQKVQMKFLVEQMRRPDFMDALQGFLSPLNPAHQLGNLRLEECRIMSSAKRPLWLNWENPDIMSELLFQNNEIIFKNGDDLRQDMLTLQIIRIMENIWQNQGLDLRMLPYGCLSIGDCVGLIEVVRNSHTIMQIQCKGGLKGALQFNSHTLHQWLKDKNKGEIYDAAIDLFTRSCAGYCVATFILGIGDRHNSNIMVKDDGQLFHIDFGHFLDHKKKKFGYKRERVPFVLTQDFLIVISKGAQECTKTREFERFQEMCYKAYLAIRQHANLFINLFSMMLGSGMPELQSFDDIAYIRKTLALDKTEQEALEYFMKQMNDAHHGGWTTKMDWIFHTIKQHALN
Chain of PI3Kα (P27986 whole entry partner, species assumed): as the sequence (P27986 whole entry partner, species assumed) above
Chain of HDAC1 (Q13547 whole entry, species assumed): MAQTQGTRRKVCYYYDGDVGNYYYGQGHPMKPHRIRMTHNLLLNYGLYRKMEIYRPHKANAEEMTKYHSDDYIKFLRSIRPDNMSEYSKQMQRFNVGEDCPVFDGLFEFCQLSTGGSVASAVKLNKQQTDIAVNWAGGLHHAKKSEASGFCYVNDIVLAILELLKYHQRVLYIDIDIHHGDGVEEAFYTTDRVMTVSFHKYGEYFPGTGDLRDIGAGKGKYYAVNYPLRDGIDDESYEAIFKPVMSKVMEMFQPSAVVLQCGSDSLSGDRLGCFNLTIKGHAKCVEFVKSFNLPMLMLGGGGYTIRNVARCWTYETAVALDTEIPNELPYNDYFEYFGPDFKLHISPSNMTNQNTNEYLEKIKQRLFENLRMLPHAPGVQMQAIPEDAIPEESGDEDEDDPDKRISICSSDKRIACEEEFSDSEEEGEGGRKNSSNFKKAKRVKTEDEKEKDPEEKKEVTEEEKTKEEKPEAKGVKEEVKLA
Chain of HDAC2 (Q92769 whole entry, species assumed): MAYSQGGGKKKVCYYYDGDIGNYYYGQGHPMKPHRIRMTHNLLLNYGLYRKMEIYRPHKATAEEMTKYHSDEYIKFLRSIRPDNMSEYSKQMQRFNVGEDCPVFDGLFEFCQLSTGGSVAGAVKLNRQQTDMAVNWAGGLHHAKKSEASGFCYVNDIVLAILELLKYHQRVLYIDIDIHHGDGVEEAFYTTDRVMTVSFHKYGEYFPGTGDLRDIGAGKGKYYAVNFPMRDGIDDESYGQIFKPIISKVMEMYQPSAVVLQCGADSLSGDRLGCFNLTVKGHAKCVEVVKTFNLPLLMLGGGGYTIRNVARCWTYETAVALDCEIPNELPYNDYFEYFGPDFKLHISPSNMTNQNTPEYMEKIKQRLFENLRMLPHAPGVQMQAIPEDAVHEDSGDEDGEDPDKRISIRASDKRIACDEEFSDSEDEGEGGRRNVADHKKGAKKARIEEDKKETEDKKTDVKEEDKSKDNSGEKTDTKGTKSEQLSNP
Chain of PI3Kγ (P48736 whole entry, species assumed): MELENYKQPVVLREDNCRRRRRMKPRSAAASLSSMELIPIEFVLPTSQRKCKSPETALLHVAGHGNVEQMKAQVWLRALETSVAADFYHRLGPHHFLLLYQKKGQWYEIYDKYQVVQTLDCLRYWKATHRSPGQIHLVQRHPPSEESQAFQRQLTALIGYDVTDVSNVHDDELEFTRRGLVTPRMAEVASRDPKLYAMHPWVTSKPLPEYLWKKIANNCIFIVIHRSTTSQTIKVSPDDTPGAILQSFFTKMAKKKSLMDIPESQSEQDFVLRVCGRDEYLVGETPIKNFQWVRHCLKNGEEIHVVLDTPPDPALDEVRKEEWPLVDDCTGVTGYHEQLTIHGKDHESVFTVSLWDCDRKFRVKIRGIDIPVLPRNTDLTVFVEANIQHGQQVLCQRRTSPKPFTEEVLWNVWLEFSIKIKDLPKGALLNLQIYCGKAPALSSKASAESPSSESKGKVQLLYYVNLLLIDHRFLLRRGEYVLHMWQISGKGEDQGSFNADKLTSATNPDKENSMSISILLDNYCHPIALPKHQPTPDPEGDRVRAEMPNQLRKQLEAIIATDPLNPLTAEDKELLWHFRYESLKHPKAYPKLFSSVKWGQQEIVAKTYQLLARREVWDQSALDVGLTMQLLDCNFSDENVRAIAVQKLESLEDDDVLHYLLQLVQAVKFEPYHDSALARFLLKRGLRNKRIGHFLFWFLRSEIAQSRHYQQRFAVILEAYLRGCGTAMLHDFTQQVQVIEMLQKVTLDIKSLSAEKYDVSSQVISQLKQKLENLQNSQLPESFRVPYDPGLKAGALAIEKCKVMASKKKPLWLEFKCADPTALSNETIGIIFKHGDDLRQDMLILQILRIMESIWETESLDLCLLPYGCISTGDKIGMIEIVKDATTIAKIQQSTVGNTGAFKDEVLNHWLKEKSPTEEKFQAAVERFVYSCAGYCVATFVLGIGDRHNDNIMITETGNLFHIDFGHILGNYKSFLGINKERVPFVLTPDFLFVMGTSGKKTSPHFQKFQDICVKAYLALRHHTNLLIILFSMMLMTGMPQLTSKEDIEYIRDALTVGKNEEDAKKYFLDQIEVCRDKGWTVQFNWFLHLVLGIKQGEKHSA

Take `COc1ncc(-c2nc(N3CCOCC3)nc3c(CNc4ncc(C(=O)NO)cc4F)cc(F)cc23)cc1NS(C)(=O)=O` [Compound 35]: the IC50 is ≤ 0.01 µM against HDAC1, 0.01 to 0.1 µM against HDAC6 and ≤ 0.01 µM on PI3Kδ.

Consider `COc1ncc(-c2nc(N3CCOCC3)nc3c(OC4CCC(c5ccc(C(=O)NO)cc5F)CC4)cc(F)cc23)cc1NS(C)(=O)=O` (stereo not drawn) [Compound 41], for which the values for the IC50 against HDAC1, at HDAC6 and on PI3Kδ were 1 to 10 µM, 0.1 to 1 µM and 0.1 to 1 µM, respectively.

On to `COc1ncc(-c2nc(N3CCOCC3)nc3c(CN4CCc5cc(C(=O)NO)cc(F)c5C4)cc(F)cc23)cc1NS(C)(=O)=O` [Compound 43], for which the IC50 at HDAC1 is 1 to 10 µM; at HDAC6, 0.1 to 1 µM; at PI3Kδ, 0.01 to 0.1 µM.

For `COc1ncc(-c2nc(N3CCOCC3)nc3c(OCc4ncc(C(=O)NO)cc4F)cc(F)cc23)cc1NS(C)(=O)=O` [Compound 45], the 50% inhibitory concentration (IC50) at HDAC2 was in the range of 1 to 10 µM; against HDAC1, 0.1 to 1 µM; against HDAC6, 0.01 to 0.1 µM; at PI3Kδ, 1 to 10 µM.

As to `COc1ncc(-c2nc(N3CCOCC3)nc3c(CNc4ccc(C(=O)NO)cc4F)cc(F)cc23)cc1NS(C)(=O)=O` [Compound 36], the IC50 was in the range of 0.1 to 1 µM against HDAC1, 0.01 to 0.1 µM against HDAC6 and 0.01 to 0.1 µM at PI3Kδ.

For `COc1ncc(-c2nc(N3CCOCC3)nc3c(CN4CCC(C(C)(C)O)CC4)cc(F)cc23)cc1NS(C)(=O)=O` [YY-20394, N-(5-(6-fluoro-8-((4-(2-hydroxypropyl-2-yl)piperidin-1-yl)methyl)-2-morpholine-quinazolin-4-yl)-2-methoxypyridin-3-yl)methanesulfonamide, reference compound], the half-maximal inhibitory concentration (IC50) is 0.1 to 1 µM on PI3Kβ; 0.1 to 1 µM on PI3Kα; > 10 µM on HDAC6; > 10 µM on PI3Kγ; ≤ 0.01 µM at PI3Kδ. Also, the “clinical benefit in clinical studies” value in series [1] was “clinical benefit”. The “safety profile in clinical studies” value in series [1] was “favorable safety profile”.

With `COc1ncc(-c2nc(N3CCOCC3)nc3c(OC4CCN(c5cc(C(=O)NO)no5)CC4)cc(F)cc23)cc1NS(C)(=O)=O` [Compound 44], the IC50 on HDAC2 lay in the range of 0.1 to 1 µM; on HDAC1, 0.1 to 1 µM; against HDAC6, 0.01 to 0.1 µM; at PI3Kδ, 0.01 to 0.1 µM.

Take `COc1ncc(-c2nc(N3CCOCC3)nc3c(CN4CCC(OCCCC(=O)NO)CC4)cc(F)cc23)cc1NS(C)(=O)=O` [Compound 13]: the IC50 at PI3Kα is 1 to 10 µM; on HDAC6, 0.1 to 1 µM; on PI3Kδ it was ≤ 0.01 µM.

As for `COc1ncc(-c2nc(N3CCOCC3)nc3c(OC4CCN(c5c(F)cc(C(=O)NO)cc5F)CC4)cc(F)cc23)cc1NS(C)(=O)=O` [Compound 42], the values for the IC50 against HDAC1, against HDAC6 and at PI3Kδ were 1 to 10 µM, 0.1 to 1 µM and 0.01 to 0.1 µM, respectively.

In the case of `COc1ncc(-c2nc(N3CCOCC3)nc3c(CN4CCC(CCCCC(=O)NO)CC4)cc(F)cc23)cc1NS(C)(=O)=O` [Compound 15], the IC50 was 0.1 to 1 µM at PI3Kα, 0.1 to 1 µM against HDAC6 and ≤ 0.01 µM on PI3Kδ.

Regarding `COc1ncc(-c2nc(N3CCOCC3)nc3c(CN4CCC(c5ccc(C(=O)NO)cc5)CC4)cc(F)cc23)cc1NS(C)(=O)=O` [Compound 23], the half-inhibitory concentration (IC50) is 0.1 to 1 µM on PI3Kα, 0.01 to 0.1 µM against HDAC6 and ≤ 0.01 µM on PI3Kδ.

`COc1ncc(-c2nc(N3CCOCC3)nc3c(CN4CCN(Cc5ncc(C(=O)NO)cn5)CC4)cc(F)cc23)cc1NS(C)(=O)=O` [Compound 12]: the IC50 on PI3Kα was 0.1 to 1 µM; against HDAC6, 0.1 to 1 µM; on PI3Kδ, ≤ 0.01 µM.
